Results on 26 compounds are retold here after patent publication US7307171B2, “Materials and methods for inhibiting fouling of surfaces exposed to aquatic environments” (priority 2003, dated 2007).

As usually defined, the LC50 is the concentration lethal to half of the exposed cells or organisms. By IC50 is commonly meant the concentration needed to halve the response being measured. For orientation: pKa means the negative logarithm of the acid dissociation constant.

Read-outs that look alike come from different tables or passages of the source.

Series [1] in a line: Barnacle naupliar larval 24 hour toxicity (mortality) assay. The format is in vivo, Balanus amphitrite. As to conditions: Balanus amphitrite, in vivo, other: larvae exposed in sea water solution of the compound; second naupliar stage, 24 hr mortality; interval in parentheses; read-out: Barnacle Larvae Lethal Median Conc. LC50. The source says: (§1) While the cypris larval stage was used in settlement tests, the second naupliar larval stage was used in toxicity tests. Great care was taken to ensure that the free bases completely dissolved in aged sea water solutions previously filtered to remove particles >than 100 kDa. This was accomplished by diluting (by immediate and thorough vortexing) a 3×10^−2 Molar solution of the free base in methanol at least 1,000-fold into the filtered sea water. Diluted aqueous solutions of the compounds were not refrigerated and were used within an hour of preparation.
(§2) All six possible unsubstituted bipyridyls were also tested.

The subject of series [2] is crayfish Procambarus clarkii. As to conditions: cited from earlier work; for Crayfish Paralysis PD50: Table 2 footnote 1: published previously (Kem, Soti 2001).
In series [3] the test system is crayfish Procambarus clarkii. The following applies: for Crayfish Paralysis PD50: Table 2, no footnote, paralysis 15 min after injection; for Crayfish Paralysis Rel. Pot: relative to 2,3′-BP = 100; for crayfish paralytic activity (in words): crayfish paralysis assay; for fold less toxic/paralytic than 2,3′-BP in crayfish: injected into crayfish, compared with 2,3′-BP; for Crayfish Acute Paralytic Dose PD50: Table 1, no footnote, P. clarkii, injected into haemocoele, paralysis at 15 min.
Description: Each alkaloid, dissolved in 0.9% sodium chloride containing 10 mM Tris buffer (pH 7.4), was injected into the haemocoele which surrounds the heart. Dose per unit weight was kept constant by injecting a variable volume, 0.10 ml per 10 g fresh weight. Paralysis was measured 15 minutes after injection by measuring the animal's ability, after being placed on its back, to right itself within a 2-minute period. Although the convulsive paralytic effect of the bipyridyls reached a peak about 2-minutes after injection, paralysis could be more conveniently measured 15 minutes after injection. Generally, the same number (10-20) of crayfish were injected at each dose, and the dose interval was kept constant. Before the assay, crayfish were tested to ascertain that they could right themselves within a one minute period.
Animals initially develop tremors, then flex their legs, repeatedly flip their tails, then fall on their side in a tonic convulsion within 2-5 minutes after injection. Recovery is appreciable within 15 minutes, the time selected as most convenient for evaluating groups of 5 animals rapidly injected one after another.

In series [4] the test system is barnacle (Balanus amphitrite) cyprid larvae. Kind of series: Barnacle cyprid larval 24 hour settlement inhibition assay. Format: in vivo. The following applies: for IC50: cyprid larvae, 24 hr exposure, probit analysis, interval in parentheses; for Inhibition Pot/Paralytic Pot: ratio of relative settlement inhibition potency to relative crayfish paralytic potency; for Barnacle Larvae Settlement Rel. Pot: relative to 2,3′-BP = 100; for Barnacle Larvae Settlement % Inhib: single concentration, three separate experiments, spread in parentheses; for anti-settlement activity (in words): barnacle larval settlement.
From the text: as §1

Series [5] is described as follows: physchem.
Series [6] relates to barnacle second naupliar larval stage. Kind of series: Barnacle naupliar larval 24 hour toxicity (mortality) assay. The format is in vivo, Balanus amphitrite. As to conditions: 24 hr mortality, interval in parentheses, read-out: Barnacle Larvae Lethal Median Conc. LC50.
From the text: as §1, §2

The mark [7] stands for this setting: Table 1 footnote 1: published previously, P. clarkii from California (Kem 1976).
Setting [8] is: Table 1 footnote 2: published previously, P. clarkii from Louisiana (Kem, Soti 2001).

For `c1ccc(-c2cccnc2)nc1` [2,3′-BP, 2,3′-Bipyridyl], the LC50 at 24 h in series [1] was found to be 1.9 µM. For the same compound, in series [2] (setting [7]), the “Crayfish Acute Paralytic Dose PD50” value is listed as 0.88^1 μg. Further, the “Crayfish Acute Paralytic Dose PD50” value in series [2] (setting [8]) is 1.8^2 μg. For the same compound, in series [3], the “Crayfish Paralysis PD50” value was determined as 1.8 µg and the “Crayfish Paralysis Rel. Pot” value came to 100. The IC50 in series [4] (Amphibalanus amphitrite) is 4.1 µM. Moreover, in series [4], the “Inhibition Pot/Paralytic Pot” value amounted to 1.0, the “Barnacle Larvae Settlement Rel. Pot” value was 100 and the “Barnacle Larvae Settlement % Inhib” value is reported as 54 (11) %. The same compound showed a pKa in series [5] of 4.4.
As to `c1cnc2c(c1)ccc1ncccc12` [1,7-phenanthroline, reference compound], in series [1], the LC50 at 24 h was greater than 50 µM. Besides, in series [2] (setting [8]), the “Crayfish Acute Paralytic Dose PD50” value was >30^2 μg. The “crayfish paralytic activity (in words)” value in series [3] was “low activity”. The IC50 in series [4] (Amphibalanus amphitrite) was greater than 50 µM. In series [4], the “anti-settlement activity (in words)” value is “inactive at a 10-fold higher concentration”.
In the case of `c1cncc(C2=NCCCC2)c1` [Anabaseine, anabaseine], the LC50 at 24 h in series [1] was determined as 2 µM. In series [2] (setting [7]), the “Crayfish Acute Paralytic Dose PD50” value is reported as 3.6^1 μg. In series [3], the “crayfish paralytic activity (in words)” value is on record as “slightly less paralytic than 2,3′-BP” and the “fold less toxic/paralytic than 2,3′-BP in crayfish” value is recorded as “approximately 4 fold”. Moreover, the IC50 in series [4] (Amphibalanus amphitrite) was 1.2 µM.
Regarding `c1cncc(-c2ccnc(-c3cccnc3)c2)c1` [Nicotelline], the “anti-settlement activity (in words)” value in series [4] was “displayed an activity similar to nemertelline”.
Still for that read-out and setting: for (S)-anabaseine the value was “inhibited settlement”.
Regarding `Cc1ccc(-c2ccccn2)cn1` [6′-Me2,3′-BP, 6′-Methyl-2,3′-bipyridyl], in series [3], the “Crayfish Paralysis PD50” value turned out to be 12 µg and the “Crayfish Paralysis Rel. Pot” value is 15. Moreover, in series [4], the “Inhibition Pot/Paralytic Pot” value is reported as 3.7, the “Barnacle Larvae Settlement Rel. Pot” value is 56 and the “Barnacle Larvae Settlement % Inhib” value is on record as 30 (16) %.
As for “1-methyl-2,3′-BP [1-Methyl-2,3′BP, reference compound]”, the LC50 in series [6] is greater than 100 µM. The “Crayfish Acute Paralytic Dose PD50” value in series [2] (setting [8]) is listed as >800^2 μg. The “crayfish paralytic activity (in words)” value in series [3] is listed as “very low paralytic activity”. For the same compound, in series [4], the “anti-settlement activity (in words)” value is “low anti-settlement activity” and the IC50 was greater than 100 µM.
As to `c1cnc(-c2cccnc2)nc1` [2-(3-pyridyl)-pyrimidine], the LC50 at 24 h in series [1] is greater than 50 µM. Besides, the “Crayfish Acute Paralytic Dose PD50” value in series [2] (setting [8]) is recorded as 2.6^2 μg. Moreover, the IC50 in series [4] (Amphibalanus amphitrite) is greater than 50 µM.
In the case of `Cc1ccncc1-c1ccccn1` [4′-Me2,3′-BP, 4′-Methyl-2,3′-bipyridyl], the “Crayfish Paralysis PD50” value in series [2] was 69^1 μg. Moreover, in series [3], the “fold less toxic/paralytic than 2,3′-BP in crayfish” value turned out to be 33 fold and the “Crayfish Paralysis Rel. Pot” value is reported as 3. The “crayfish paralytic activity as % of 2,3′-BP” value in series [3] (relative to 2,3′-BP) worked out at 3%. In series [4], the “Inhibition Pot/Paralytic Pot” value was 56, the “Barnacle Larvae Settlement Rel. Pot” value was determined as 167 and the “Barnacle Larvae Settlement % Inhib” value was 90 (10) %.
In the case of `c1cnc2c(c1)ccc1ccncc12` [1,9-phenanthroline], the LC50 at 24 h in series [1] is greater than 50 µM. Further, the “Crayfish Acute Paralytic Dose PD50” value in series [2] (setting [8]) is on record as 3.0^2 μg. For the same compound, in series [4] (Amphibalanus amphitrite), the IC50 was 2 µM. The “anti-settlement activity (in words)” value in series [4] is “almost as active as 2,3′-BP”.
For `c1cncc(C2=NCCCN2)c1` [PTHP, 2-(3-pyridyl)-3,4,5,6-tetrahydropyrimidine, reference compound], the LC50 at 24 h in series [1] is greater than 100 µM. Moreover, the “Crayfish Acute Paralytic Dose PD50” value in series [2] (setting [8]) was 81^2 μg. In addition, in series [3], the “crayfish paralytic activity (in words)” value was “very low paralytic activity”. Besides, the IC50 in series [4] (Amphibalanus amphitrite) was greater than 100 µM. The “anti-settlement activity (in words)” value in series [4] is listed as “relative inactivity”.
For `c1cncc([C@@H]2CCCCN2)c1` [Anabasine], in series [3], the “Crayfish Acute Paralytic Dose PD50” value stood at 3.9 µg. Besides, in series [4] (Amphibalanus amphitrite), the IC50 came to 3 µM.
For the compound `Cc1cccc(-c2cccnc2)n1` [6-Me2,3′-BP, 6-methyl-2,3′-bipyridyl], in series [3], the “Crayfish Paralysis PD50” value was 1.6 µg and the “Crayfish Paralysis Rel. Pot” value turned out to be 112. Besides, in series [4], the “Inhibition Pot/Paralytic Pot” value was determined as 0.27, the “Barnacle Larvae Settlement Rel. Pot” value was 30 and the “Barnacle Larvae Settlement % Inhib” value is on record as 16 (16) %.
On to `c1ccc(-c2ccncc2)nc1` [2,4′-BP, 2,4′-bipyridyl], for which the LC50 at 24 h in series [1] is greater than 50 µM. Besides, in series [3], the “Crayfish Acute Paralytic Dose PD50” value was greater than 20 µg. For the same compound, the 50% inhibitory concentration (IC50) in series [4] (Amphibalanus amphitrite) is greater than 100 µM.
For `Cc1cncc(-c2ccccn2)c1` [5′-Me2,3′-BP, 5′-Methyl-2,3′-bipyridyl], in series [3], the “Crayfish Paralysis PD50” value amounted to 3.3 µg and the “Crayfish Paralysis Rel. Pot” value was determined as 55. Moreover, in series [4], the “Inhibition Pot/Paralytic Pot” value turned out to be 1.8, the “Barnacle Larvae Settlement Rel. Pot” value is 100 and the “Barnacle Larvae Settlement % Inhib” value is listed as 54 (28) %.
As to `Clc1cccnc1-c1cccnc1` [3-Chloro-2,3′-BP, reference compound], the LC50 in series [6] is greater than 50 µM. For the same compound, in series [4], the “anti-settlement activity (in words)” value is “inability of the 3-chloro-2,3′-BP to inhibit settlement at 100 μM” and the IC50 is greater than 100 µM.
On to `c1cc(-c2ccncc2)ccn1` [4,4′-BP, 4,4′-bipyridyl], for which the IC50 in series [4] (Amphibalanus amphitrite) is greater than 100 µM.
For `Cc1cccnc1-c1cccnc1` [3-Me2,3′-BP, 3-Methyl-2,3′-bipyridyl], in series [2], the “Crayfish Paralysis PD50” value was 59^1 μg. For the same compound, in series [3], the “Crayfish Paralysis Rel. Pot” value is reported as 30. In series [4], the “Inhibition Pot/Paralytic Pot” value was 2.1, the “Barnacle Larvae Settlement Rel. Pot” value is 63 and the “Barnacle Larvae Settlement % Inhib” value is listed as 34 (13) %.
Take `c1cncc(-c2cccnc2)c1` [3,3′-BP, 3,3′-bipyridyl]: in series [1], the LC50 at 24 h is 10 µM. Further, in series [3], the “Crayfish Acute Paralytic Dose PD50” value was 17 µg. Also, the IC50 in series [4] (Amphibalanus amphitrite) is greater than 100 µM.
As for “2-(thienyl)-pyridine [reference compound]”, the LC50 in series [6] is greater than 100 µM. In series [2] (setting [8]), the “Crayfish Acute Paralytic Dose PD50” value is given as 650^2 μg. In series [4], the “anti-settlement activity (in words)” value is reported as “inactivity” and the IC50 is greater than 100 µM.
Consider `Cc1ccnc(-c2cccnc2)c1` [4-Me2,3′-BP, 4-Me2,3′-bipyridyl], for which, in series [3], the “Crayfish Paralysis PD50” value is 3.6 µg and the “Crayfish Paralysis Rel. Pot” value stood at 50. In series [4], the “Inhibition Pot/Paralytic Pot” value is listed as 3.1, the “Barnacle Larvae Settlement Rel. Pot” value stood at 154 and the “Barnacle Larvae Settlement % Inhib” value is 83 (4) %.
Turning to `c1cncc(-c2ccncc2)c1` [3,4′-BP, 3,4′-bipyidyl], the median lethal concentration (LC50) in series [6] was greater than 20 µM. Besides, in series [3], the “Crayfish Acute Paralytic Dose PD50” value is 61 µg. The IC50 in series [4] is greater than 100 µM.
For the compound `c1ccc(-c2ccccn2)nc1` [2,2′-BP, 2,2′-bipyridyl], the LC50 at 24 h in series [1] came out at 4.4 µM. In series [3], the “Crayfish Acute Paralytic Dose PD50” value was greater than 100 µg and the “fold less toxic/paralytic than 2,3′-BP in crayfish” value was “at least 50 fold”. In addition, the IC50 in series [4] (Amphibalanus amphitrite) worked out at 7 µM.
Take `Cc1ncccc1-c1ccccn1` [2′-Me2,3′-BP, 2′-Me2,3′-bipyridyl]: in series [2], the “Crayfish Paralysis PD50” value was 210^1 μg. Also, the “Crayfish Paralysis Rel. Pot” value in series [3] amounted to 1. Also, in series [4], the “Inhibition Pot/Paralytic Pot” value is reported as less than 0.05, the “Barnacle Larvae Settlement Rel. Pot” value stood at 0 and the “Barnacle Larvae Settlement % Inhib” value was 0 (33) %.
On to `Cc1ccc(-c2cccnc2)nc1` [5-Me2,3′-BP, 5-methyl-2,3′-bipyridyl], for which, in series [3], the “Crayfish Paralysis PD50” value was 0.98 µg and the “Crayfish Paralysis Rel. Pot” value came out at 184. Besides, in series [4], the “Inhibition Pot/Paralytic Pot” value came out at 0.96, the “Barnacle Larvae Settlement Rel. Pot” value was determined as 176 and the “Barnacle Larvae Settlement % Inhib” value is 95 (5) %.
As for nemertelline, in series [3], the “Crayfish Acute Paralytic Dose PD50” value was greater than 120 µg. Moreover, in series [4], the IC50 was found to be 3.2 µM.
